Source: US20230248626A1, “Compositions Comprising (Bio)-Alkanediols” (Symrise AG, priority 0001, published 2023)
In brackets after ≈: the same amount, converted by molar mass. Like-named read-outs stand apart in the source and are kept apart here.

How the values were obtained:
Assay type in all cases: cell-based
human sebaceous glands = test: Sebum production of micro-dissected, cultured human sebaceous glands (lipids/proteins after six days); parameters: sebum reduction: concentration or dose not given beside the values; conditions: for sebum reduction: compared to untreated control, six days, single donor (FIG. 4)
Description: Additional tests were performed with human sebaceous glands in order to verify the modulatory activity of different 1,2-alkanediols and 2,3-alkanediols on sebum secretion. Several microbial species on the skin are lipid dependent and feed on the human sebum (e.g. Corynebacterium, Propionibacterium). Accordingly, sebum reduction can indirectly support the reduction of microorganisms on the skin and in this way also indirectly support e.g. dandruff or acne reduction.
For these experiments sebaceous glands had been micro-dissected and cultured with medium. The medium without any supplement served as untreated control. Medium with 5 μM Capsaicin served as positive control. Additionally, culture medium was supplemented with different concentrations of alkanediols. After six days the sebaceous glands were collected and lipids and proteins quantified. The total lipid amount being representative of sebum production was obtained by normalizing the quantified lipids upon the quantified proteins (i.e. mg of lipids/mg of proteins).

Escherichia coli (EC) = test: Preservation efficacy test (PET), European Pharmacopoeia 5.1.3
Description: (§1) The preservation efficacy test (PET) was performed in accordance with European Pharmacopoeia § 5.1.3: The test is a reference European Pharmacopoeia method, that is to be used to evaluate the preservation system of a cosmetic or pharmaceutical preparation. The test consists of challenging the preparation under test, with prescribed inoculums of suitable microorganisms. The preservation porperties of the preparation are adequate if, in the conditions of the test, there is a significant fall or no increase, as appropriate, in the number of microorganisms in the inoculated preparations after the time prescribed.
(§2) The test microorganisms which were used, are the following:
(§3) Pseudomonas aeruginosa (PA) (bacterium); Staphylococcus aureus (SA) (bacterium); Escherichia coli (EC) (bacterium); Candida albicans (CA) (yeast); and Aspergillus brasiliensis (AB) (fungus).

Candida albicans (CA) = test: as above
Description: as §1, §2, §3

[1] = tested on: Staphylococcus aureus (SA); test: as above
Description: as §1, §2, §3

[2] = tested on: Aspergillus brasiliensis (AB); test: as above
Description: as §1, §2, §3

[3] = tested on: Pseudomonas aeruginosa (PA); test: as above
Description: as §1, §2, §3

Propionibacterium acnes = test: MIC test (growth inhibition, 96 well plates, OD); conditions: Cutibacterium acnes; read-out: Minimum Inhibitory Concentration (MIC)
Description: (§4) The MIC test is a test on growth inhibition. Estimation of Minimum Inhibitory Concentration (MIC) is executed in 96 well plates. Through the comparison of bacterial growth with positive and negative controls via optical density (OD), different concentrations of given test substances are evaluated.
(§5) Bacteria are cultivated under adjusted conditions based on information of the German Collection of Microorganisms and Cell Cultures (DSMZ) and stored in 50% Glycerol prior to use. Afterwards, the following method was applied: Adding growth medium (according to microorganism) to each well of the microplate. Adding the test-substances in different concentrations, positive controls (water controls only with medium) and negative controls (benchmarks according to organism). Adding the microorganism in a concentration of 10^6 CFU/ml (CFU=colony forming units). Incubation of the microplates at appropriate conditions.
(§6) According to resulting growth, substance concentrations are labelled either as inhibiting or not and MIC is defined as the lowest concentration where a complete growth inhibition is visible. Experiments at concentration limits (highest concentration labelled as growth and lowest concentration labelled as inhibiting) are performed at least twice.

Candida albicans = test: MIC test (growth inhibition, 96 well plates, OD); conditions: read-out: Minimum Inhibitory Concentration (MIC)
Description: as §4, §5, §6

Escherichia coli = test: MIC test (growth inhibition, 96 well plates, OD); conditions: read-out: Minimum Inhibitory Concentration (MIC)
Description: as §4, §5, §6

Anaerococcus octavius = test: MIC test (growth inhibition, 96 well plates, OD)
Description: as §4, §5, §6

Corynebacterium xerosis = test: MIC test (growth inhibition, 96 well plates, OD)
Description: as §4, §5, §6

Staphylococcus hominis = test: MIC test (growth inhibition, 96 well plates, OD); conditions: read-out: Minimum Inhibitory Concentration (MIC)
Description: as §4, §5, §6

Staphylococcus aureus = test: MIC test (growth inhibition, 96 well plates, OD); conditions: read-out: Minimum Inhibitory Concentration (MIC)
Description: as §4, §5, §6

[4] = tested on: Staphylococcus epidermidis; test: MIC test (growth inhibition, 96 well plates, OD)
Description: as §4, §5, §6

Corynebacterium jeikeium = test: MIC test (growth inhibition, 96 well plates, OD); conditions: read-out: Minimum Inhibitory Concentration (MIC)
Description: as §4, §5, §6

Aspergillus niger = test: MIC test (growth inhibition, 96 well plates, OD)
Description: as §4, §5, §6

Aspergillus brasiliensis = test: MIC and Kull synergy index of 1,2-/2,3-alkanediol mixtures

CCCCCCCC(O)CO (centres unmarked) [1,2-nonanediol]
sebum reduction (human sebaceous glands): 28%
concentration dependency of sebum reduction (in words) (human sebaceous glands; different donor (FIG. 5)): experimentally confirmed
number of microorganisms after 2 days (Escherichia coli (EC); 0.1% in o/w emulsion): 6,700
number of microorganisms after 7 days (Escherichia coli (EC); 0.1% in o/w emulsion): 1
number of microorganisms after 14 days (Escherichia coli (EC); 0.1% in o/w emulsion): 1
number of microorganisms after 28 days (Escherichia coli (EC); 0.1% in o/w emulsion): 1
number of microorganisms after 2 days (Candida albicans (CA); 0.1% in o/w emulsion): 1,600,000
number of microorganisms after 7 days (Candida albicans (CA); 0.1% in o/w emulsion): 120,000
number of microorganisms after 14 days (Candida albicans (CA); 0.1% in o/w emulsion): 890
number of microorganisms after 28 days (Candida albicans (CA); 0.1% in o/w emulsion): 1
number of microorganisms after 2 days ([1]; 0.1% in o/w emulsion): 2,300
number of microorganisms after 7 days ([1]; 0.1% in o/w emulsion): 1
number of microorganisms after 14 days ([1]; 0.1% in o/w emulsion): 1
number of microorganisms after 28 days ([1]; 0.1% in o/w emulsion): 1
number of microorganisms after 2 days ([2]; 0.1% in o/w emulsion): 2,300,000
number of microorganisms after 7 days ([2]; 0.1% in o/w emulsion): 1,300,000
number of microorganisms after 14 days ([2]; 0.1% in o/w emulsion): 1,200,000
number of microorganisms after 28 days ([2]; 0.1% in o/w emulsion): 900,000
number of microorganisms after 2 days ([3]; 0.1% in o/w emulsion): 1
number of microorganisms after 7 days ([3]; 0.1% in o/w emulsion): 1
number of microorganisms after 14 days ([3]; 0.1% in o/w emulsion): 1
number of microorganisms after 28 days ([3]; 0.1% in o/w emulsion): 1
MIC (Propionibacterium acnes): 1000 µg/mL (≈ 6.24 mM)
MIC (Candida albicans): 1000 µg/mL (≈ 6.24 mM)
MIC (Escherichia coli): 500 µg/mL (≈ 3.12 mM)
MIC (Anaerococcus octavius): 1000 µg/mL (≈ 6.24 mM)
MIC (Corynebacterium xerosis): 2500 µg/mL (≈ 15.6 mM)
MIC (Staphylococcus hominis): 1000 µg/mL (≈ 6.24 mM)
MIC (Staphylococcus aureus): 1000 µg/mL (≈ 6.24 mM)
MIC [4]: 1000 µg/mL (≈ 6.24 mM)
MIC (Corynebacterium jeikeium): 2500 µg/mL (≈ 15.6 mM)
MIC (Aspergillus niger): 2500 µg/mL (≈ 15.6 mM)
MIC (Aspergillus brasiliensis; single 1,2-alkanediol, read-out: MIC Component A): 500 µg/mL

CCCCCCC(O)C(C)O (centres unmarked) [2,3-nonanediol]
sebum reduction (human sebaceous glands): 41%
number of microorganisms after 2 days (Escherichia coli (EC); 0.1% in o/w emulsion): 810,000
number of microorganisms after 7 days (Escherichia coli (EC); 0.1% in o/w emulsion): 27,000
number of microorganisms after 14 days (Escherichia coli (EC); 0.1% in o/w emulsion): 1,100
number of microorganisms after 28 days (Escherichia coli (EC); 0.1% in o/w emulsion): 1
number of microorganisms after 2 days (Escherichia coli (EC); 0.1% in shampoo): 2,300,000
number of microorganisms after 7 days (Escherichia coli (EC); 0.1% in shampoo): 4,200,000
number of microorganisms after 14 days (Escherichia coli (EC); 0.1% in shampoo): 1,800,000
number of microorganisms after 28 days (Escherichia coli (EC); 0.1% in shampoo): 1,100,000
number of microorganisms after 2 days (Escherichia coli (EC); 0.4% in shampoo): 3,200,000
number of microorganisms after 7 days (Escherichia coli (EC); 0.4% in shampoo): 4,200,000
number of microorganisms after 14 days (Escherichia coli (EC); 0.4% in shampoo): 1,300,000
number of microorganisms after 28 days (Escherichia coli (EC); 0.4% in shampoo): 1,400,000
number of microorganisms after 2 days (Candida albicans (CA); 0.1% in o/w emulsion): 2,000,000
number of microorganisms after 7 days (Candida albicans (CA); 0.1% in o/w emulsion): 2,500,000
number of microorganisms after 14 days (Candida albicans (CA); 0.1% in o/w emulsion): 1,900,000
number of microorganisms after 28 days (Candida albicans (CA); 0.1% in o/w emulsion): 970,000
number of microorganisms after 2 days (Candida albicans (CA); 0.1% in shampoo): 110,000
number of microorganisms after 7 days (Candida albicans (CA); 0.1% in shampoo): 29,000
number of microorganisms after 14 days (Candida albicans (CA); 0.1% in shampoo): 870
number of microorganisms after 28 days (Candida albicans (CA); 0.1% in shampoo): 1
number of microorganisms after 2 days (Candida albicans (CA); 0.4% in shampoo): 68,000
number of microorganisms after 7 days (Candida albicans (CA); 0.4% in shampoo): 14,000
number of microorganisms after 14 days (Candida albicans (CA); 0.4% in shampoo): 690
number of microorganisms after 28 days (Candida albicans (CA); 0.4% in shampoo): 1
number of microorganisms after 2 days ([1]; 0.1% in o/w emulsion): 2,200,000
number of microorganisms after 7 days ([1]; 0.1% in o/w emulsion): 66,000
number of microorganisms after 14 days ([1]; 0.1% in o/w emulsion): 1
number of microorganisms after 28 days ([1]; 0.1% in o/w emulsion): 1
number of microorganisms after 2 days ([1]; 0.1% in shampoo): 31,000
number of microorganisms after 7 days ([1]; 0.1% in shampoo): 200
number of microorganisms after 14 days ([1]; 0.1% in shampoo): 1
number of microorganisms after 28 days ([1]; 0.1% in shampoo): 1
number of microorganisms after 2 days ([1]; 0.4% in shampoo): 1,800
number of microorganisms after 7 days ([1]; 0.4% in shampoo): 1
number of microorganisms after 14 days ([1]; 0.4% in shampoo): 1
number of microorganisms after 28 days ([1]; 0.4% in shampoo): 1
number of microorganisms after 2 days ([2]; 0.1% in o/w emulsion): 1,200,000
number of microorganisms after 7 days ([2]; 0.1% in o/w emulsion): 1,100,000
number of microorganisms after 14 days ([2]; 0.1% in o/w emulsion): 890,000
number of microorganisms after 28 days ([2]; 0.1% in o/w emulsion): 1,100,000
number of microorganisms after 2 days ([2]; 0.1% in shampoo): 1,800,000
number of microorganisms after 7 days ([2]; 0.1% in shampoo): 2,000,000
number of microorganisms after 14 days ([2]; 0.1% in shampoo): 680,000
number of microorganisms after 28 days ([2]; 0.1% in shampoo): 530,000
number of microorganisms after 2 days ([2]; 0.4% in shampoo): 2,100,000
number of microorganisms after 7 days ([2]; 0.4% in shampoo): 1,800,000
number of microorganisms after 14 days ([2]; 0.4% in shampoo): 1,200,000
number of microorganisms after 28 days ([2]; 0.4% in shampoo): 1,100,000
number of microorganisms after 2 days ([3]; 0.1% in o/w emulsion): 1
number of microorganisms after 7 days ([3]; 0.1% in o/w emulsion): 1
number of microorganisms after 14 days ([3]; 0.1% in o/w emulsion): 1
number of microorganisms after 28 days ([3]; 0.1% in o/w emulsion): 1
number of microorganisms after 2 days ([3]; 0.1% in shampoo): 160,000
number of microorganisms after 7 days ([3]; 0.1% in shampoo): 2,000,000
number of microorganisms after 14 days ([3]; 0.1% in shampoo): 10,000,000
number of microorganisms after 28 days ([3]; 0.1% in shampoo): 8,800,000
number of microorganisms after 2 days ([3]; 0.4% in shampoo): 17,000
number of microorganisms after 7 days ([3]; 0.4% in shampoo): 1
number of microorganisms after 14 days ([3]; 0.4% in shampoo): 1
number of microorganisms after 28 days ([3]; 0.4% in shampoo): 1
MIC (Propionibacterium acnes): 2500 µg/mL (≈ 15.6 mM)
MIC (Candida albicans): 2500 µg/mL (≈ 15.6 mM)
MIC (Escherichia coli): 1000 µg/mL (≈ 6.24 mM)
MIC (Staphylococcus hominis): 5000 µg/mL (≈ 31.2 mM)
MIC (Staphylococcus aureus): 2500 µg/mL (≈ 15.6 mM)
MIC (Corynebacterium jeikeium): 2500 µg/mL (≈ 15.6 mM)
MIC (Aspergillus brasiliensis; single 2,3-alkanediol, read-out: MIC Component B): 1000 µg/mL
